This is an account of results in patent publication US20190211002A1, “NOVEL TRIAZOLE DERIVATIVES” (Bayer CropScience Aktiengesellschaft, priority 2016, published 2019).

Molecules are shown by their SMILES.

Data set [1] has as its system Sphaerotheca fuliginea. Briefly: Example H: in vivo preventive test on Sphaerotheca (cucumbers), comparison vs. WO-A 2010/146116. Conditions: evaluated 7 days after inoculation. How it is done:
To produce a suitable preparation of active compound, 1 part by weight of active compound is mixed with the stated amounts of solvent and emulsifier, and the concentrate is diluted with water to the desired concentration. To test for preventive activity, young plants are sprayed with the preparation of active compound at the stated rate of application. After the spray coating has dried on, the plants are inoculated with an aqueous spore suspension of Sphaerotheca fuliginea. The plants are then placed in a greenhouse at approximately 23° C. and a relative atmospheric humidity of approximately 70%. The test is evaluated 7 days after the inoculation.

In data set [2] the test system is Sphaerotheca fuliginea. As to the kind of experiment: Example C: in vivo preventive test on Sphaerotheca fuliginea (powdery mildew on cucurbits). Conditions: Podosphaera fuliginea, 360 h; 500 ppm of active ingredient; gherkin; preventive spray; evaluated 15 days after inoculation; read-out: efficacy. How it is done:
The test is evaluated 15 days after the inoculation.

Data set [3] deals with Puccinia recondita. Briefly: Example A: in vivo preventive test on Puccinia recondita (brown rust on wheat). Conditions: 264 h, 500 ppm of active ingredient, preventive spray, evaluated 11 days after inoculation, read-out: efficacy. How it is done:
(§1) The test is evaluated 11 days after the inoculation.

The subject of data set [4] is Blumeria graminis f sp. hordei. As to the kind of experiment: Example E: in vivo preventive Blumeria test (barley). The following applies: 168 h, 500 ppm of active ingredient, preventive spray, evaluated 7 days after inoculation, read-out: efficacy. How it is done:
• Solvent: 49 parts by weight of N,N-dimethylacetamide • Emulsifier: 1 part by weight of alkylaryl polyglycol ether To produce a suitable preparation of active compound, 1 part by weight of active compound or active compound combination was mixed with the stated amounts of solvent and emulsifier, and the concentrate was diluted with water to the desired concentration. To test for preventive activity, young plants were sprayed with the preparation of active compound or active compound combination at the stated rate of application. After the spray coating had been dried, the plants were dusted with spores of Blumeria graminis f sp. hordei. The plants were placed in the greenhouse at a temperature of approximately 18° C. and a relative atmospheric humidity of approximately 80% to promote the development of mildew pustules. The test was evaluated 7 days after the inoculation.

For data set [5], the system named is Sphaerotheca fuliginea. Briefly: Example F: in vivo preventive test on Sphaerotheca (cucumbers), comparison vs. known phenoxy-phenyl compounds. Conditions: rate of application 10 ppm, evaluated 7 days after inoculation. How it is done:
• Solvent: 24.5 parts by weight of acetone • 24.5 parts by weight of dimethylacetamide • Emulsifier: 1 part by weight of alkylaryl polyglycol ether
To produce a suitable preparation of active compound, 1 part by weight of active compound is mixed with the above stated amounts of solvent and emulsifier, and the concentrate is diluted with water to the desired concentration.
To test for preventive activity, young plants are sprayed with the preparation of active compound at the stated rate of application. After the spray coating has dried on, the plants are inoculated with an aqueous spore suspension of Sphaerotheca fuliginea. The plants are then placed in a greenhouse at approximately 23° C. and a relative atmospheric humidity of approximately 70%.
The test is evaluated 7 days after the inoculation.

Data set [6] deals with Septoria tritici. As to the kind of experiment: Example G: in vivo 5 days preventive Septoria tritici test (wheat), comparison vs. WO-A 2010/146116. The following applies: inoculated 5 days after spraying, evaluated 21 days after inoculation. How it is done: • Solvent: 49 parts by weight of N,N-dimethylacetamide • Emulsifier: 1 part by weight of alkylaryl polyglycol ether To produce a suitable preparation of active compound, 1 part by weight of active compound or active compound combination is mixed with the stated amounts of solvent and emulsifier, and the concentrate is diluted with water to the desired concentration. To test for preventive and long-lasting activity, young plants are sprayed with a preparation of active compound or active compound combination at the stated rate of application. After the spray coating has been dried, the plants are placed in the greenhouse at a temperature of approximately 15° C. and a relative atmospheric humidity of approximately 80%. 5 days later the plants are sprayed with a spore suspension of Septoria tritici. The plants remain for 48 hours in an incubation cabinet at approximately 20° C. and a relative atmospheric humidity of approximately 100% and afterwards for 60 hours at approximately 15° C. in a translucent incubation cabinet at a relative atmospheric humidity of approximately 100%. Then the plants are placed in the greenhouse at a temperature of approximately 15° C. and a relative atmospheric humidity of approximately 80%. The test is evaluated 21 days after the inoculation.

The subject of data set [7] is Uromyces appendiculatus. As to the kind of experiment: Example D: in vivo preventive test on Uromyces appendiculatus (bean rust). Conditions: 264 h, 500 ppm of active ingredient, preventive spray, evaluated 11 days after inoculation, read-out: efficacy. How it is done: as §1
Data set [8] can be described thus: LogP by HPLC on reversed phase columns (EEC directive 79/831 Annex V.A8). It is filed as physicochemical. Conditions: reversed phase HPLC column, method [a]: LC-UV, acidic range, 0.1% formic acid in water and acetonitrile as eluent. How it is done: Measurement of LogP values was performed according to EEC directive 79/831 Annex V.A8 by HPLC (High Performance Liquid Chromatography) on reversed phase columns with the following methods: • ^[a] […] Lambda-max-values were determined using UV-spectra from 200 nm to 400 nm and the peak values of the chromatographic signals.

Regarding `FC(F)(F)c1nc(Oc2ccc(Cl)cc2)ccc1C1(Cn2cncn2)OCCO1` [I.04, 6-(4-chlorophenoxy)-3-[2-(1,2,4-triazol-1-ylmethyl)-1,3-dioxolan-2-yl]-2-(trifluoromethyl)-pyridine], the Efficacy in % turned out to be 73% in data set [1] (rate of application 10 ppm); 100% in data set [1] (rate of application 100 ppm); 73% in data set [5]; 86% in data set [6] (rate of application 100 ppm); 100% in data set [6] (rate of application 500 ppm). Further, the pest or weed control at 500 ppm in data set [2], in data set [3], in data set [4] and in data set [7] was 90 to 100% throughout. Also, the chromatographic logP in data set [8] turned out to be 3.25.
On to `FC(F)(F)c1ccc(Oc2ccc(C3(Cn4cncn4)OCCO3)c(C(F)(F)F)n2)cc1` [I.14, 3-[2-(1,2,4-triazol-1-ylmethyl)-1,3-dioxolan-2-yl]-2-(trifluoromethyl)-6-[4-(trifluoromethyl)phenoxy]pyridine], for which the Efficacy in % in data set [1] (rate of application 10 ppm) came to 75%; in data set [1] (rate of application 100 ppm) it was 100%; in data set [6] (rate of application 100 ppm) it was 100%; in data set [6] (rate of application 500 ppm) it was 100%. The pest or weed control at 500 ppm in data set [2], in data set [3], in data set [4] and in data set [7] was 90 to 100% in each case. The molecule further had a chromatographic logP in data set [8] of 3.29.
In turn, `CC(O)(Cn1cncn1)c1ccc(Oc2ccc(Cl)cc2)cc1C(F)(F)F` (centres unmarked) [reference compound] registered an Efficacy in % in data set [5] of 30%.
